Patent US20260365662A1, “ISOANDROGRAPHOLIDE ANALOGS AND METHOD FOR TREATMENT USING THE SAME” (Enveda Therapeutics, Inc., priority 2023, published 2026)

Experiments:
Type in all cases: in vivo
female BALB/c mouse [1] = test: MC-903 induced atopic dermatitis model, therapeutic mode, low doses (Example 16); details: p.o. twice a day; for dermatitis severity scores: 0.01 to 10 mg/kg, vs MC-903 vehicle control
Description: (§1) Experimental details: Preclinical animal model of atopic dermatitis was developed by MC-903, a vitamin-D analogue. In the current study, the test item Compound 2 was screened in therapeutic mode, to evaluate its efficacy in MC-903 induced AD model. 2 nmol of MC-903 was topically applied to 8-10 weeks old female BALB/c mouse from G2-G8 group at a volume of 50 μl/mouse on back skin on every alternate day for 14 days to induced disease. For the G1 group, (Normal+ethanol control) the same volume of ethanol that was used to solubilize MC-903 was applied. Clobetasol (0.05%, 15 mg/mouse) was applied topically once a day to G3 group animals. Compound 2 was administered per oral twice a day at 0.01, 0.1, 1, 3 & 10 mg/kg to respective treatment groups (G4-G8) for 14 days. On the day of MC-903 administration, test compounds were dosed one hour prior to MC-903 insult. Clinical scores to assess the disease intensity were measured from visual examination for erythema, scaling and back skin thickness using dial caliper. All the scores were carried by blinded observers to treatment groups. Disease severity was assessed by dermatitis severity scores.

female BALB/c mouse [2] = test: MC-903 induced atopic dermatitis model, therapeutic mode, vs oral JAK-i (Example 15); details: twice a day; for dermatitis severity scores: vs MC-903 vehicle control
Description: as §1, with “group animals, Upadacitinib” for “group animals. Compound 2”, “was dosed” for “was administered per”, “at 2, 6” for “at 0.01, 0.1, 1, 3”, “& 20” for “& 10”, “mg/kg to G4, G5 & G6 respectively. Compound 2 was administered twice a day” for “mg/kg”, “groups (G7-G10)” for “groups (G4-G8)”

female BALB/c mouse [3] = test: MC-903 induced atopic dermatitis model, therapeutic mode (Example 14); details: twice a day, vs MC-903 vehicle control
Description: Experimental details: Preclinical animal model of atopic dermatitis was developed by MC-903, a vitamin-D analogue. In the current study, the test item Compound 2 was screened in therapeutic mode, to evaluate its efficacy in MC-903 induced AD model. 2 nmol of MC-903 was topically applied to 8-10 weeks old female BALB/c mouse from G2-G8 group at a volume of 50 μl/mouse on back skin on every alternate day for 14 days to induced disease. For the G1 group, (Normal+ethanol control) the same volume of ethanol that was used to solubilize MC-903 was applied. Clobetasol (0.05%, 15 mg/mouse) was applied topically once a day to G3 group animals and Ruxolitinib (1.5%, 20 mg/mouse) was applied topically twice a day to G4 group animals. Compound 2 was administered twice a day to respective treatment groups (G4-G8) for 14 days. On the day of MC-903 administration, test compounds were dosed one hour prior to MC-903 insult. Clinical scores to assess the disease intensity were measured from visual examination for erythema, scaling and back skin thickness using dial caliper. All the scores were carried by blinded observers to treatment groups. Disease severity was assessed by dermatitis erythema & dermatitis scaling.

female BALB/c mouse [4] = test: MC-903 induced atopic dermatitis model, prophylactic (Example 12); details: for immune cell infiltration: histopathology, back skin; for IL-31 expression: itch marker
Description: Experimental details: Preclinical animal model of atopic dermatitis was developed by MC-903, a vitamin-D analogue. In the current study, the test item Compound 2 was screened to evaluate its efficacy in MC-903 induced AD model. 2 nmol of MC-903 was topically applied to 8-10 weeks old female BALB/c mouse from G2-G7 group at a volume of 50 μl/mouse on back skin on every alternate day for 14 days to induced disease. For the G1 group, (Normal+ethanol control) the same volume of ethanol that was used to solubilize MC-903 was applied. Clobetasol (0.05%, 20 mg) was applied topically once a day to G3 group animals. Compound 2 was administered twice a day to respective treatment groups (G4-G7) for 14 days. On the day of MC-903 administration, test compounds were dosed one hour prior to MC-903 insult. Clinical scores to assess the disease intensity were measured from visual examination for erythema, scaling and back skin thickness using dial caliper. All the scores were carried by blinded observers to treatment groups. Cumulative dermatitis severity scores were calculated by adding up the individual scores of erythema, scaling & thickness. On day-14 of the study, all animals were terminally bled under mild anesthesia followed by humane sacrifice and back skin tissue was dissected. Required skin tissue samples were collected in fixative and part of the tissue was flash-frozen in liquid nitrogen and stored at −80 °C. Collected tissue samples were processed and used for biomarker analysis using gene and protein expression analysis by qPCR & ELISA, pharmacokinetic analysis by LC-MS and histopathology studies.

[5] = twice a day, 14 days, vs MC-903 vehicle control

Q: How did the minimal effective dose (female BALB/c mouse [1]; Mus musculus, po, 336 h, doses 0.01, 0.1, 1, 3, 10 mg/kg, read-out: lowest active dose (dermatitis severity scores)) turn out when `C[C@@]12CCC(=O)N[C@@](C)(CO)[C@H]1CC[C@@]1(C)O[C@H](C3=CCOC3=O)C[C@@H]21` [Compound 2, (2S,3aR,5aS,6R,10aR,10bS)-6-(hydroxymethyl)-3a,6,10a-trimethyl-2-(2-oxo-2,5-dihydrofuran-3-yl) dodecahydro-8H-benzofuro[5,4-c]azepin-8-one] was run?
A: Its minimal effective dose is 0.1 mg/kg.

Q: And the dermatitis severity scores (female BALB/c mouse [1])?
A: The dermatitis severity scores was “significant dose dependent decrease”.

Q: And the dermatitis severity scores (female BALB/c mouse [1]; listed as compound 2)?
A: Its dermatitis severity scores is “significantly reduces”.

Q: What about the “efficacy compared with oral JAK-i” value (female BALB/c mouse [2]) of the same compound?
A: The value was “Efficacy On-Par with Oral JAK-i”.

Q: What about the dermatitis severity scores (female BALB/c mouse [2]) of the same compound?
A: The dermatitis severity scores was “significant dose dependent decrease in dermatitis severity scores on-par with oral JAK-i”.

Q: And the dermatitis severity scores (female BALB/c mouse [2]; listed as compound 2)?
A: Its dermatitis severity scores is “significantly reduces dermatitis severity scores on-par with oral JAK-i”.

Q: And the dermatitis erythema scores (female BALB/c mouse [3])?
A: Its dermatitis erythema scores is “dose dependent decrease”.

Q: And the dermatitis scaling scores (female BALB/c mouse [3])?
A: Its dermatitis scaling scores is “dose dependent decrease”.

Q: And the dermatitis erythema scores (female BALB/c mouse [3]; listed as compound 2)?
A: Its dermatitis erythema scores is “significantly reduces”.

Q: And the dermatitis scaling scores (female BALB/c mouse [3]; listed as compound 2)?
A: The dermatitis scaling scores was “significantly reduces”.

Q: And the neutrophil infiltration (female BALB/c mouse [4]; FIG. 12C)?
A: Its neutrophil infiltration is “robustly reduces”.

Q: What about the “early barrier alarmins in skin” value (female BALB/c mouse [4]; FIG. 12G) of the same compound?
A: Its value is “reduces early barrier alarmins”.

Q: What about the tissue cytokine expression (female BALB/c mouse [4]; FIG. 12H) of the same compound?
A: Its tissue cytokine expression is “impacts tissue cytokine expression”.

Q: What about the “improvement of MC-903-induced atopic dermatitis” value (female BALB/c mouse [4]; compared with high-potency topical corticosteroids) of the same compound?
A: Its value is “comparable to high-potency topical corticosteroids”.

Q: And the immune cell infiltration (female BALB/c mouse [4])?
A: Its immune cell infiltration is “significantly reduced”.

Q: And the immune cell infiltration (female BALB/c mouse [4]; listed as compound 2)?
A: Its immune cell infiltration is “reduced dose-dependent immune cell infiltration”.

Q: What about the “histopathological changes and final histopathology scores” value (female BALB/c mouse [4]; hyperkeratosis, parakeratosis, lengthening and clubbing of rete ridges, vs MC-903 vehicle control) of the same compound?
A: The value was “significantly reduced”.

Q: What about the IL-31 expression (female BALB/c mouse [4]; prophylactic, back skin tissue) of the same compound?
A: Its IL-31 expression is “significantly reduced”.

Q: And the IL-31 expression (female BALB/c mouse [4]; prophylactic, back skin tissue, listed as compound 2)?
A: The IL-31 expression was “decreases IL-31 expression”.

Q: And the NGAL levels (female BALB/c mouse [4]; neutrophil marker, back skin tissue)?
A: Its NGAL levels is “significantly reduced”.

Q: And the NGAL levels (female BALB/c mouse [4]; neutrophil marker, back skin tissue, listed as compound 2)?
A: The NGAL levels was “significantly reduces NGAL levels”.

Q: What about the Lipocalin-2 expression (female BALB/c mouse [4]; neutrophil marker, prophylactic, back skin tissue) of the same compound?
A: The Lipocalin-2 expression was “significantly reduced”.

Q: What about the IL-4 expression (female BALB/c mouse [4]; prophylactic, back skin tissue) of the same compound?
A: Its IL-4 expression is “significantly reduced”.

Q: What about the IL-13 expression (female BALB/c mouse [4]; prophylactic, back skin tissue) of the same compound?
A: The IL-13 expression was “significantly reduced”.

Q: What about the Krt6a expression (female BALB/c mouse [4]; prophylactic, back skin tissue) of the same compound?
A: Its Krt6a expression is “significantly reduced”.

Q: And the “Tissue TSLP expression” value (female BALB/c mouse [4]; prophylactic, back skin tissue)?
A: The value was “significantly reduced”.

Q: And the dermatitis severity scores (female BALB/c mouse [4]; [5])?
A: Its dermatitis severity scores is “dose dependent decrease”.

Q: And the epidermal thickness (female BALB/c mouse [4]; [5])?
A: The epidermal thickness was “significantly reduced”.

Q: What about the epidermal thickness (female BALB/c mouse [4]; twice a day, 14 days, vs MC-903 vehicle control, listed as compound 2) of the same compound?
A: Its epidermal thickness is “robustly reduces epidermal thickness”.
